Literature values as cited in patent publication US20210316038A1, “ANTIBIOTIC ELUTING POLY(ESTER UREA) FILMS, MESHES AND POUCHES FOR INFECTION CONTROL OF IMPLANTABLE MEDICAL DEVICES” (The University of Akron, priority 2019, published 2021).

## Cc1nnc(SCC2=C(C(=O)O)N3C(=O)[C@@H](NC(=O)Cn4cnnn4)[C@H]3SC2)s1 [Cefazolin]
  solubility in water: Cefazolin has high solubility in water (>100 mg/ml
